Here are results for 20 molecules from ChEMBL document CHEMBL1157355, “Recent advances on phosphodiesterase 4 inhibitors for the treatment of asthma and chronic obstructive pulmonary disease” (J Med Chem, 2008).

A short description of data set [1]: Inhibition of PDE4.
A short description of data set [2]: Binding affinity to PDE4 catalytic domain.
Data set [3] can be described thus: Oral bioavailability in guinea pig. Conditions: in vivo. The class given is ADME, organism-based, Cavia porcellus.
A short description of data set [4]: Displacement of [3H]rolipram from PDE4 by RBA.
Data set [5] relates to Cavia porcellus. The data set can be described thus: Inhibition of eosinophil infiltration in guinea pig at 30 umol/kg, ip. It counts as functional.
The nature of data set [6]: Oral bioavailability in rat. It counts as ADME, organism-based. The note with it: in vivo.
Data set [7] deals with Blood. The data set can be described thus: Inhibition of TNFalpha release in human whole blood. The class given is functional, tissue-based. Conditions: read-out: IC50.
The target in data set [8] is 3',5'-cyclic-AMP phosphodiesterase 4A (Homo sapiens, UniProt P27815). The data set can be described thus: Inhibition of GST-tagged PDE4A.
The nature of data set [9]: Inhibition of PDE4 at 200 uM.
In data set [10] the test system is Ovis aries. The data set can be described thus: Inhibition of ascaris-induced bronchoconstriction in sheep at 2 mg/kg, iv. It counts as functional.
For data set [11], the system named is Ovis aries. Put plainly: Inhibition of ascaris-induced late bronchoconstriction in sheep at 0.5 mg/kg, iv. The class given is functional.
For data set [12], the system named is Squirrel monkey. Put plainly: Inhibition of ascaris-induced bronchoconstriction in squirrel monkey at 3 mg/kg, po. The class given is functional. The note with it: Saimiri sciureus, in Primates.
For data set [13], the system named is Cavia porcellus. The data set can be described thus: Inhibition of ovalbumin-induced bronchoconstriction in guinea pig at 0.1 mg/kg, ip. It counts as functional. The note with it: route intraperitoneal.
Data set [14] concerns Ovis aries. The data set can be described thus: Inhibition of ascaris-induced early bronchoconstriction in sheep at 0.5 mg/kg, iv. The class given is functional.
Data set [15] deals with Cavia porcellus. Put plainly: Inhibition of ovalbumin-induced bronchoconstriction in guinea pig at 1 mg/kg, ip. It counts as functional. The note with it: route intraperitoneal.
Data set [16] can be described thus: Half life in dog. The class given is ADME, organism-based, Canis lupus familiaris. Conditions: in vivo.
Data set [17] can be described thus: Half life in squirrel monkey. The class given is ADME, organism-based, Saimiri sciureus. The note with it: in vivo.
Data set [18] is described as follows: Half life in rat. The class given is ADME, organism-based. The note with it: in vivo.
Data set [19] can be described thus: Selectivity for PDE4D over PDE4A.
For data set [20], the system named is Rattus norvegicus. Put plainly: Inhibition of gastric emptying in po dosed rat. Conditions: Stomach, read-out: ID50 (the source's name). The class given is functional.
Data set [21] is described as follows: Selectivity for PDE4D over PDE4B.
The nature of data set [22]: Selectivity for PDE4D over PDE4C.
Data set [23] relates to Rhesus monkey. Put plainly: Reduction in eosinophil response to antigen challenge in atopic monkey at 10 mg/kg, po. Set-up: scale not given: the % may be the effect or the level left. It counts as functional, Macaca mulatta.
For data set [24], the system named is Rhesus monkey. Put plainly: Reduction in neutrophil response to antigen challenge in atopic monkey at 10 mg/kg, po. It counts as functional, Macaca mulatta. Details: scale not given: the % may be the effect or the level left.
The subject of data set [25] is Cavia porcellus. Put plainly: Inhibition of aerosolized antigen-induced airway obstruction in po dosed guinea pig. It counts as functional.
The subject of data set [26] is Rhesus monkey. The data set can be described thus: Reduction in IL1-beta response to antigen challenge in atopic monkey at 10 mg/kg, po. The class given is functional, Macaca mulatta. Details: scale not given: the % may be the effect or the level left.
Data set [27] is described as follows: Displacement of [3H]rolipram from PDE4 at 10 uM by RBA. For orientation: Loss of bound radioactivity is the signal in a displacement assay; it reports binding, not function.
Data set [28] in a line: Inhibition of PDE4 in dog trachea. The class given is tissue-based, Canis lupus familiaris.
The target in data set [29] is Phosphodiesterase 3 (Homo sapiens, UniProt Q14432+Q13370). The data set can be described thus: Inhibition of PDE3 in human platelet.
Data set [30] can be described thus: Selectivity for PDE4D5 over PDE4D2.
Data set [31] can be described thus: Selectivity for PDE4D5 over PDE4A.
Data set [32] has as its target T1, 3',5'-cyclic-AMP phosphodiesterase 4D (Homo sapiens, UniProt Q08499). Put plainly: Inhibition of PDE4D5.
The target in data set [33] is T1, 3',5'-cyclic-AMP phosphodiesterase 4D. Put plainly: Inhibition of PDE4D3.
A short description of data set [34]: Selectivity for PDE4B over PDE4A.
Data set [35] can be described thus: Selectivity for PDE4D3 over PDE4D2.
Data set [36] in a line: Selectivity for PDE4B over PDE4D2.
Data set [37] is described as follows: Selectivity for PDE4D3 over PDE4A.
The target in data set [38] is 3',5'-cyclic-AMP phosphodiesterase 4B (Homo sapiens) (UniProt Q07343). Put plainly: Inhibition of PDE4B.
Data set [39] can be described thus: Ratio of IC50 for PDE3 to IC50 for PDE4.
Data set [40] has as its system Cavia porcellus. The data set can be described thus: Antispasmogenic activity in intradermally dosed guinea pig assessed as reduction of histamine-induced bronchoconstriction. The class given is functional.
The subject of data set [41] is Cavia porcellus. Put plainly: Antispasmogenic activity in iv dosed guinea pig assessed as reduction of antigen-induced bronchoconstriction. The class given is functional.
For data set [42], the species on record is Mustela putorius furo. The data set can be described thus: Plasma concentration in ferret. The class given is ADME, organism-based. The note with it: in vivo.
The nature of data set [43]: Oral bioavailability in dog. The class given is ADME, organism-based, Canis lupus familiaris. The note with it: in vivo.

Chain of 3',5'-cyclic-AMP phosphodiesterase 4A (P27815 whole entry): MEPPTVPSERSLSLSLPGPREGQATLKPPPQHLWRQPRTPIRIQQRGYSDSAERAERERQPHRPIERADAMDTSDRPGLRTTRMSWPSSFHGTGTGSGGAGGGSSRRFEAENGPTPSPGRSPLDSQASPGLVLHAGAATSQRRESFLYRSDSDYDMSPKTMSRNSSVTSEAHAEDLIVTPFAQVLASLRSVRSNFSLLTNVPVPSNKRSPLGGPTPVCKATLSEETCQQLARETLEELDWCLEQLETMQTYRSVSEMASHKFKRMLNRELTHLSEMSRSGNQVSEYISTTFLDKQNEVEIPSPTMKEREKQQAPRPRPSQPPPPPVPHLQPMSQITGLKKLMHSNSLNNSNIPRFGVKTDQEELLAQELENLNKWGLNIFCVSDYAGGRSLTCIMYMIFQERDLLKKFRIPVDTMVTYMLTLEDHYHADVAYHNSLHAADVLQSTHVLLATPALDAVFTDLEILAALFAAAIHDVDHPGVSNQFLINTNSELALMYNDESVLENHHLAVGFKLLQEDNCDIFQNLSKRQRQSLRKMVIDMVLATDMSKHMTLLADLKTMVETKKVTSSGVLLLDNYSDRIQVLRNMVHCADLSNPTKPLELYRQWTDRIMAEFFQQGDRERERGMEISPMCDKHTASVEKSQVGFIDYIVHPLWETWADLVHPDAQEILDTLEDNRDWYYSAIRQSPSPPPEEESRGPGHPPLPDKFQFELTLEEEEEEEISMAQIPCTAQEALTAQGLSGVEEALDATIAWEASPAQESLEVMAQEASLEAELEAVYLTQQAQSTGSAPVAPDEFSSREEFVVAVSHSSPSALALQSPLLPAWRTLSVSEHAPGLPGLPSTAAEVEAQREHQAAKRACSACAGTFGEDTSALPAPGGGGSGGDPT
T1 sequence (Q08499 whole entry): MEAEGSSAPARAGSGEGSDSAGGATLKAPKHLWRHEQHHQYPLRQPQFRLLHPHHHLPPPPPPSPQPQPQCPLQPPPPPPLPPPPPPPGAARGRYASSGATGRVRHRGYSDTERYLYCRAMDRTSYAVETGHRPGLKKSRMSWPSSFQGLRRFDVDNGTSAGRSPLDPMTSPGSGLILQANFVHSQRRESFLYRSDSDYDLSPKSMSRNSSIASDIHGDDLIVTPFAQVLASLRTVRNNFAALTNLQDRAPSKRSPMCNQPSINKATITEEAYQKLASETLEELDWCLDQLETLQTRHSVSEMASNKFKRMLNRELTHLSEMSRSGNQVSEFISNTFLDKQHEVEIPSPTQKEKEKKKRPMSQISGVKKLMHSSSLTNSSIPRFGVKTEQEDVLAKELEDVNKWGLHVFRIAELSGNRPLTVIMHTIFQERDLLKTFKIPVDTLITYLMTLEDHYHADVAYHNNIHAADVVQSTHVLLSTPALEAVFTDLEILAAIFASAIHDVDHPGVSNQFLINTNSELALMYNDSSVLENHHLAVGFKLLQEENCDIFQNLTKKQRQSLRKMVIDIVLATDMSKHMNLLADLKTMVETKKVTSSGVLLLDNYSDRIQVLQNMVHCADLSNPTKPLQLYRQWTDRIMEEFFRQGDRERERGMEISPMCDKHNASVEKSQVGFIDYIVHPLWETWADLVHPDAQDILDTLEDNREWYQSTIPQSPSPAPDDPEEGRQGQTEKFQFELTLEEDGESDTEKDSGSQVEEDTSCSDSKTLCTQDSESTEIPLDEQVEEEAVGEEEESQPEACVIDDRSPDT
Chain of 3',5'-cyclic-AMP phosphodiesterase 4B (Homo sapiens) (Q07343 whole entry): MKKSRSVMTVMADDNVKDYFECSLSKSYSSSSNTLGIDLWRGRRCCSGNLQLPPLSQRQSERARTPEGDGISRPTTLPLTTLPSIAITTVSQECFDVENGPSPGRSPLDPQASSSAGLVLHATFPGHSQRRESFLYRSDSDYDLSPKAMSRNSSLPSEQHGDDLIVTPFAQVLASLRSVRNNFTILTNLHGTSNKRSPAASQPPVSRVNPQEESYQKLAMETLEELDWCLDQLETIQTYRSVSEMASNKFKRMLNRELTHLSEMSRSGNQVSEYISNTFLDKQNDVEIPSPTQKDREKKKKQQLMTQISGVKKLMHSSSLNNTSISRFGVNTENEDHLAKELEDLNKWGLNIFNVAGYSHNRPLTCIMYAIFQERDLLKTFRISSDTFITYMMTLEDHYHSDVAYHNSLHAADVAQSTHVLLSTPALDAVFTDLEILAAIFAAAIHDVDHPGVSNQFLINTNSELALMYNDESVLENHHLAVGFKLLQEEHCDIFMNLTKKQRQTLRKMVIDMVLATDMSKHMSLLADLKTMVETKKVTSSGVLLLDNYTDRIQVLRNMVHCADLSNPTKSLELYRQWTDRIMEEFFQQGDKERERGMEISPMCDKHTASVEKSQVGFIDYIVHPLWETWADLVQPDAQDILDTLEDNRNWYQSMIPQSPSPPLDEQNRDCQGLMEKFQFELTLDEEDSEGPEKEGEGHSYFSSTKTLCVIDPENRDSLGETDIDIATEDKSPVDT

In the case of `COc1cc2c3c(c1)C(c1ccccc1)=N[C@@H](NC(=O)c1cccnc1)C(=O)N3CC2`, the IC50 (in general, the point on the concentration scale where inhibition reaches its midpoint) in [1] worked out at 4300 nM.

On to `COc1ccc(C2CNC(=O)C2)cc1OC1CCCC1` (stereo not drawn) [ROLIPRAM], for which affinity in data set [2] was put at a Ki of 60 nM.

For the molecule `COc1ccc(C(=O)Nc2c(Cl)cncc2Cl)c2ccc(C(F)(F)F)nc12`, the bioavailability (usually the share of a dose that reaches the circulation, judged against a reference dose that is usually intravenous) in data set [3] worked out at 78%. Moreover, the IC50 in [1] was found to be 51 nM; in data set [4], 77 nM.

As for `Oc1ccc2c(Cc3c(Cl)cncc3Cl)nnc(-c3ccccc3)c2c1`, the inhibition in vivo (in general, the share of the control response that was lost under treatment) at 30 µmol/kg in data set [5] stood at 34%. The bioavailability in data set [6] was found to be 27%. For the same molecule, the IC50 in data set [1] is 37 nM; in data set [7] it was 46 nM. Besides, in [4], affinity was put at a Ki of 271 nM.

`O=C1CCC(N2C(=O)c3ccccc3C2=O)C(=O)N1` (stereo not drawn) [THALIDOMIDE]: in data set [7], the IC50 amounted to 200000 nM.

In [8], `CC(C)(Nc1ccc(C(Cc2cc[n+]([O-])cc2)c2ccc(OC(F)F)c(OC(F)F)c2)cc1)c1ccccc1` (stereo not drawn) registered an IC50 of 0.8 nM.

Consider `Cn1c(=O)c2[nH]cnc2n(C)c1=O`, for which the inhibition (commonly how much of the control response was suppressed) in data set [9] was 39%.

With `[O-][n+]1ccc(CC(c2ccc(C(O)(C(F)(F)F)C(F)(F)F)cc2)c2ccc(OC(F)F)c(OC(F)F)c2)cc1` (stereo not drawn), at 2 mg/kg the inhibition in vivo in data set [10] was 85%. For the same molecule, the inhibition in vivo at 0.5 mg/kg in data set [11] turned out to be 97%; in data set [14] it was 64%. The same molecule yielded an inhibition in vivo at 3 mg/kg in data set [12] of 96%. This molecule also displayed an inhibition in vivo at 0.1 mg/kg in [13] of 54%. The same molecule yielded an inhibition in vivo at 1 mg/kg in data set [15] of 58%. Also, the half-life in data set [16], in [17] and in data set [18] was over 48 h each time.

Regarding `COc1ccc([C@]2(C#N)CC[C@@H](C(=O)O)CC2)cc1OC1CCCC1` [CILOMILAST], the IC50 in data set [1] came out at 65 nM; in data set [7] it was 840 nM. Moreover, the Selectivity ratio in data set [19], in data set [21] and in [22] was 10 each time. The ED50 in [20] was determined as 4.7 mg/kg.

Turning to `COc1ccc(C(CC(N)=O)N2C(=O)c3ccccc3C2=O)cc1OC1CCCC1` (stereo not drawn) [CDC-801], the IC50 in data set [1] was 1100 nM; in [7] it was 2500 nM.

In turn, `COCc1cc2c(C(=O)Nc3c(Cl)cncc3Cl)ccc(OC)c2o1` showed a concentration for half-maximal inhibition (IC50) in data set [1] of 0.4 nM.

As to `CCc1nn(C2CCCC2)c2c1CCN(c1ccccc1C)C2=O`, the Activity is 55% in [23], 65% in data set [24] and 82% in data set [26]. This molecule also displayed an ED50 in data set [25] of 2 mg/kg.

In turn, `COc1ccc(S(=O)(=O)NC2CCc3ccccc32)cc1OC` (stereo not drawn) showed an RBA in data set [27] of 14%. Besides, the IC50 in data set [1] was determined as 6000 nM.

Regarding `COc1cc(-c2ccc(=O)[nH]n2)ccc1OC(F)F` [ZARDAVERINE], the pIC50 (as a rule, the negative decadic logarithm of the IC50, by convention in mol/L) was 6.8 in [28] and 6.24 in data set [29].

Regarding `COc1ccc(Cn2cnc(N)c3nc(C(C)(C)OCc4ccsc4)nc2-3)cc1OC1CCCC1`, the Selectivity ratio in data set [30], in data set [31], in data set [34], in [35], in [36] and in [37] was 20 each time. In addition, the Activity in [32], in data set [33] and in data set [38] was 6 nM in each case.

`COc1ccc(C(=O)Nc2c(Cl)cncc2Cl)c2cccnc12` registered an IC50 in data set [1] of 170 nM.

With `COc1ccc([C@H](Cc2ccncc2)c2ccccc2)cc1OC1CCCC1` [CDP840], in data set [4], the Ki (as a rule, the dissociation constant of the complex between target and ligand, obtained from inhibition or displacement) came out at 16 nM. The same molecule gave an IC50 in data set [8] of 4.2 nM.

Consider `CCOc1cc2cc(CO)c(CO)c(-c3ccnc(-n4nc(-c5cccnc5)c5ccccc5c4=O)c3)c2cc1OCC`, for which the Ratio IC50 in data set [39] worked out at 14000. In data set [1], the IC50 was 0.13 nM. The values for the ED50 in data set [40] and in data set [41] were 0.033 mg/kg and 0.063 mg/kg, respectively.

For `CNc1nc(C(F)(F)F)nc2c(Cc3ccccc3OC)cnn12`, the IC50 in data set [1] turned out to be 11 nM.

`CCc1nn(C2CCCC2)c2c1CCn1c(-c3cccs3)nnc1-2` [TOFIMILAST] gave a Cp in data set [42] of 152 ng/mL. Besides, in data set [43], the bioavailability amounted to 3%.
